Laboratory results published in patent publication US8193150B2, “Improving vascular function with an inactivating mutant of a TRPC channel protein” (Sanofi, priority 2005, dated 2012).
Where a name gives a salt, the structure may show the parent alone.

What was measured:
TRPC3 = biological target: T1, TRPC3 (Homo sapiens, UniProt Q13507); assay: FLIPR Ca2+ fluorescence assay in inducible Flp-In T-REx-TRPC3 HEK 293 cells; format: cell-based; conditions: mean±SEM; for Fluorescence changes (F/F0): 200 nM trypsin, t=60 sec, n=9
T1 construct: expressed in transfected cells
T1 sequence (Q13507 74-921): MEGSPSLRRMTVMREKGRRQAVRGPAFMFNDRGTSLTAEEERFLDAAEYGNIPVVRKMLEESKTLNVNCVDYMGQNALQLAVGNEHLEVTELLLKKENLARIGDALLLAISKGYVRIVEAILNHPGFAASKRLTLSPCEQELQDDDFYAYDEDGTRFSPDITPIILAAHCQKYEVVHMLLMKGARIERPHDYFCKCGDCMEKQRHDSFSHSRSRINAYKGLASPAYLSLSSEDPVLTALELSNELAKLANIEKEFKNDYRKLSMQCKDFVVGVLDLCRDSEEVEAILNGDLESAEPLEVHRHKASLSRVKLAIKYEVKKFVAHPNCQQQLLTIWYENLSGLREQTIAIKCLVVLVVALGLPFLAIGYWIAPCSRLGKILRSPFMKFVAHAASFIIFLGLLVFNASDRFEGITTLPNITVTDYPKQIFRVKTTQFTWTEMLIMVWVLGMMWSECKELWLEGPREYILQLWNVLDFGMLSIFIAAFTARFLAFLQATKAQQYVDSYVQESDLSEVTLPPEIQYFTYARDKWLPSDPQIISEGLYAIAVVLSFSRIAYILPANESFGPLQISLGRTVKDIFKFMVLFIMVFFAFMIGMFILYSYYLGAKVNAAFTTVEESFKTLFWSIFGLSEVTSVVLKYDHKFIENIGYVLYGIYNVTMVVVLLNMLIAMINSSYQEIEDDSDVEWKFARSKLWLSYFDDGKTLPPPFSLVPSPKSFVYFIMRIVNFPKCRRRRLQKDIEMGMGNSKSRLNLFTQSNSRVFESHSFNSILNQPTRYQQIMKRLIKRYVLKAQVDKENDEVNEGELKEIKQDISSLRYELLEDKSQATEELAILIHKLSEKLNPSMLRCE
From the text: (§1) To develop an assay for the identification of TRPC channel modulators, recombinant HEK 293 cell lines were produced using the Flp-In T-REx system (Invitrogen, Karsruhe, Germany) that express TRPC3 (accession # U47050) or TRPC6 (accession # AF080394) cDNAs under the control of an inducible promoter. Channel cDNAs were amplified by standard techniques and cloned into pcDNA5/FRT/TO (Invitrogen, Karlsruhe, Germany). After transfection of Flp-In T-Rex 293 cells with the channel constructs stable cell lines were selected with hygromycin. Cells were maintained according to the manufactures instructions and channel expression of was induced by addition of 1 μg/ml doxycycline for 20-30 h. Cells were plated into 96 well poly-d-lysine coated black walled clear bottom microtiter plates (BD Biosciences, Bedford, Mass.) at a density of 40000-50000 cells/well 20-30 h before experiments. […] Ca^2+ measurements were performed using a 96 well Fluorescence Imaging Plate Reader (FLIPR), (Molecular Devices Corporation, Sunnyvale, Calif.). […]
(§2) Fluorescence changes in fluo-4 loaded cells were measured using FLIPR II. […] Shown are mean fluorescence values±SEM from 9 wells each. Fluorescence values were normalized to the mean baseline fluorescence (F0).
(§3) To identify modulators of TRPC3 or TRPC6 with the assays described above induced cells were used and test compounds are added to the wells before or after application of OAG. The expected effect of inhibitors would be a reduction of the fluorescence increase. Channel activators would lead to a further increase of the OAG-evoked signal or induce an OAG-independent fluorescence increase. […]
(§4) Fluorescence changes induced by 30 μM OAG in TRPC3-and TRPC6 expressing cells were measured in the presence of the given concentrations of SKF 96365. […] Inhibition is expressed as % of control fluorescence in the absence of SKF 96365. […]

TRPC6 = biological target: T2, TRPC6 (Homo sapiens, UniProt Q9Y210); assay: FLIPR Ca2+ fluorescence assay in inducible Flp-In T-REx-TRPC6 HEK 293 cells; format: cell-based; conditions: mean±SEM; for Fluorescence changes (F/F0): 200 nM trypsin, t=60 sec, n=12
T2 construct: expressed in transfected cells
T2 sequence (Q9Y210 1-931): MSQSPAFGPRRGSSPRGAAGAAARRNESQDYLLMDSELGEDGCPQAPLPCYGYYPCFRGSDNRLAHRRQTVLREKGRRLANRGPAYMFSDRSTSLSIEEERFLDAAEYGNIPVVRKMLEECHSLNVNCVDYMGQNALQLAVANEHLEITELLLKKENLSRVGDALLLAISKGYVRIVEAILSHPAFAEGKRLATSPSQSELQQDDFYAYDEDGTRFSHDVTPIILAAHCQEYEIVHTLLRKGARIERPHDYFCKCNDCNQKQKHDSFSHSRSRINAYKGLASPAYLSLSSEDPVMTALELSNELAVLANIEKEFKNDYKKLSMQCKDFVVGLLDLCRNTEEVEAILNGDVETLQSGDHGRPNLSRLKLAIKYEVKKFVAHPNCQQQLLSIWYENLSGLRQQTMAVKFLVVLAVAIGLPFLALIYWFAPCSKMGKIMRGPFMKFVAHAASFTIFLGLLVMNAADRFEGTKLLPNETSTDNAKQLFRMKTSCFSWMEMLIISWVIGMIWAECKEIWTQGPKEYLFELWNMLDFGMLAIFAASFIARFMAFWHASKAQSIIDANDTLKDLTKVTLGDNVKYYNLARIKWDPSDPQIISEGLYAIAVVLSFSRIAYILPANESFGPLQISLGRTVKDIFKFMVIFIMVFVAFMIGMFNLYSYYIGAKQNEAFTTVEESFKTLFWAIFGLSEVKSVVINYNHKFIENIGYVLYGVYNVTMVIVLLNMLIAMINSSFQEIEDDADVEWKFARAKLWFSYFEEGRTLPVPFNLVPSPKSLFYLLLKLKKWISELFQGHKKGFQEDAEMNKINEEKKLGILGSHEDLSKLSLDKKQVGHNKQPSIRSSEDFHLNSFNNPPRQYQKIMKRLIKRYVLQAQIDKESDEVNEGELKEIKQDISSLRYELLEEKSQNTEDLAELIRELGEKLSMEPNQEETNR
From the text: as §1, §2, §3, §4

Row | IC50 (TRPC3; doxycycline-induced cells, 30 μM OAG, n=8, read-out: IC50, inhibition of OAG-activated fluorescence responses in TRPC3 expressing cells) | IC50 (TRPC6; doxycycline-induced cells, 30 μM OAG, n=8, read-out: IC50, inhibition of OAG-activated fluorescence responses in TRPC6 expressing cells) | Fluorescence changes (F/F0) (TRPC3; induced Flp-In T-REx-TRPC3 cells) | Fluorescence changes (F/F0) (TRPC3; non-induced Flp-In T-REx-TRPC3 cells) | Fluorescence changes (F/F0) (TRPC6; induced Flp-In T-REx-TRPC6 cells) | Fluorescence changes (F/F0) (TRPC6; non-induced Flp-In T-REx-TRPC6 cells) | Compound
1 | 1.8 µM | 5.04 ± 0.17 µM |  |  |  |  | COc1ccc(CCCOC(Cn2ccnc2)c2ccc(OC)cc2)cc1 (stereo not drawn) [SKF 96365, 1-(β-[3-(4-methoxyphenyl)propoxy]-4-methoxyphenethyl)-1H-imidazole-HCl]
2 |  |  | 2.71 ± 0.022 (n = 9) | 1.65 ± 0.034 (n = 9) | 2.26 ± 0.05 (n = 12) | 0.88 ± 0.009 (n = 12) | trypsin
